For assay [1], the target named is T1, WEE1 (Homo sapiens, UniProt P30291+Q96SW2).
T1 construct: C-terminal ePL-tagged (DiscoverX, Fremont, CA) full-length WEE1 expression construct; expressed in transfected cells; host or cells: LentiX-HEK293T (Invitrogen), lentiviral transduction; co-expressing GSPT1-GN (G576N, lacking the first 158 amino acids)
Kind of assay: WEE1-ePL degradation assay (LentiX-WEE1-ePL-GSPT1-ND cells, InCELL Hunter luminescence, 4 h). It is filed as cell-based. The following applies: 293T-LentiX WEE1-ePL cells; for 293T-LentiX WEE1-ePL Degradation 4 hr (Ymin): lower limit of the fit (0 = luciferase inhibitor, Ymax = DMSO control); for DC50: read-out: 293T-LentiX WEE1-ePL Degradation 4 hr (EC50). A digest of the protocol: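 Luminescent readout (InCELL Hunter, 30 min RT) of WEE1-ePL levels in transduced HEK293T cells after 4 h compound exposure at 37 °C. Dosing: 10 points, 3-fold steps, top 1 uM or 10 uM. EC50 from four-parameter logistic fit; Ymax set by DMSO.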

Assay [2] deals with MKN45 cells. Nature of the assay: MKN45 cell proliferation assay (Cell-Titer-Glo, 120 h). In kind it is cell-based. The following applies: for EC50: Homo sapiens, MKN-45, 120 h, Cell-Titer-Glo, growth inhibition, read-out: MKN45 Cell Prolif. 120 hr (EC50); for MKN45 Cell Prolif. 120 hr (Ymin-Obs): minimal percent of DMSO control observed in the concentrations tested. Here is the method: MKN45 cells were obtained from Celgene internal cell banks and cultured in RPMI complete media (RPMI-1640, 1× Penicillin/Streptomycin, 1× glutamine, 1× Sodium Pyruvate, Non-essential Amino Acids, 10% Fetal Bovine serum, all component from Thermo-Fisher). Compounds were dispensed into 384-well plates using an HP DE300 compound printer in triplicate with 8 compounds on each plate. For each compound, a 10-point dose response was printed at half-log dilutions starting at either 1 uM or 10 uM. The DMSO concentration was kept constant for a final assay concentration of 0.1% per well assuming 50 ul final media volume. Compound plates were sealed and frozen at −20 C until use.
For each assay batch, compound plates were thawed and allowed to reach room temperature, and cells were seeded at 400 cells per well in 50 ul complete RPMI media. After 120 hours of incubation at 37 C and 5% CO2, cells were lysed by addition of 25 μL of Cell-Titer-Glo Reagent (Promega Corporation, Madison, WI), as per manufacturer's instructions, protected from light, shaken for 45 minutes, and total luminescence read by a Perkin Elmer Envision plate reader. Total luminescence signal is linearly correlated with cell number remaining in the well.
Luminescence data was processed per plate by subtracting reagent-only “blank” well luminescence from all measured values and calculating a percent of DMSO control value for each treatment well. Then, to determine the half-maximal effective concentration (EC50) values for cell growth inhibition, a four parameter logistic model was fit to the data for each DMSO-normalized compound: Sigmoidal Dose-Response Model: (FIT=(A+((B−A)/1+((C/x)^D)))) where C is the inflection point (EC50), D is the Hill slope, and A and B are the low and high limits of the fit respectively. The lower limit of the fit (value A) is referred to as Ymin-calculated. The minimal percent of DMSO control that is observed in the concentrations tested for each compound is labeled as “Ymin-obs”, and was recorded and reported in the tables. Sigmoidal fit curves were processed and evaluated using Activity Base (IDBS, Alameda, CA).

A word on the EC50: it is the concentration needed to bring the measured effect to its halfway point. In the case of `O=C1CCC(N2Cc3cc(O[C@H]4CCN(Cc5ccc6nc([C@H]7CC[C@H](O)CC7)ccc6c5)C4)ccc3C2=O)C(=O)N1` (stereo partly drawn) [3-(1-oxo-5-{[(3S)-1-({2-[(1r,4r)-4-hydroxycyclohexyl]quinolin-6-yl}methyl)pyrrolidin-3-yl]oxy}-2,3-dihydro-1H-isoindol-2-yl)piperidine-2,6-dione], in assay [1], the “293T-LentiX WEE1-ePL Degradation 4 hr (Ymin)” value turned out to be 30 and the DC50 amounted to 4.67 nM. In addition, in assay [2], the EC50 was determined as 2.79 nM and the “MKN45 Cell Prolif. 120 hr (Ymin-Obs)” value worked out at 7.3325.

On to `CO[C@H]1CC[C@H](c2ccc3cc(CN4CC[C@H](Oc5ccc6c(c5)CN(C5CCC(=O)NC5=O)C6=O)C4)ccc3n2)CC1` (stereo partly drawn) [3-(1-oxo-5-{[(3S)-1-({2-[(1r,4r)-4-methoxycyclohexyl]quinolin-6-yl}methyl)pyrrolidin-3-yl]oxy}-2,3-dihydro-1H-isoindol-2-yl)piperidine-2,6-dione], for which, in assay [1], the “293T-LentiX WEE1-ePL Degradation 4 hr (Ymin)” value came out at 26 and the DC50 was 1.88 nM. Further, in assay [2], the EC50 was found to be 1.29 nM and the “MKN45 Cell Prolif. 120 hr (Ymin-Obs)” value came to 11.035.

Consider `O=C1CCC(N2Cc3cc(O[C@H]4CCN(Cc5ccc6nc([C@H]7C[C@@H](O)C7)ccc6c5)C4)ccc3C2=O)C(=O)N1` (stereo partly drawn) [3-(1-oxo-5-{[(3S)-1-({2-[(1s,3s)-3-hydroxycyclobutyl]quinolin-6-yl}methyl)pyrrolidin-3-yl]oxy}-2,3-dihydro-1H-isoindol-2-yl)piperidine-2,6-dione], for which, in assay [1], the “293T-LentiX WEE1-ePL Degradation 4 hr (Ymin)” value worked out at 31 and the DC50 stood at 2.09 nM. In assay [2], the EC50 turned out to be 5.21 nM and the “MKN45 Cell Prolif. 120 hr (Ymin-Obs)” value is reported as 6.89.

Take `COC[C@H]1CC[C@@H](c2ccc3cc(CN4CC[C@H](Oc5ccc6c(c5)CN(C5CCC(=O)NC5=O)C6=O)C4)ccc3n2)CC1` (stereo partly drawn) [3-(1-oxo-5-{[(3S)-1-({2-[(1s,4s)-4-(methoxymethyl)cyclohexyl]quinolin-6-yl}methyl)pyrrolidin-3-yl]oxy}-2,3-dihydro-1H-isoindol-2-yl)piperidine-2,6-dione]: in assay [1], the “293T-LentiX WEE1-ePL Degradation 4 hr (Ymin)” value is 28.9 and the DC50 was 1.22 nM. In assay [2], the EC50 was 2.66 nM and the “MKN45 Cell Prolif. 120 hr (Ymin-Obs)” value was 12.53.

In the case of `O=C1CCC(N2Cc3cc(O[C@H]4CCN(Cc5ccc6nc([C@H]7CC[C@@H](O)CC7)ccc6c5)C4)ccc3C2=O)C(=O)N1` (stereo partly drawn) [3-(1-oxo-5-{[(3S)-1-({2-[(1s,4s)-4-hydroxycyclohexyl]quinolin-6-yl}methyl)pyrrolidin-3-yl]oxy}-2,3-dihydro-1H-isoindol-2-yl)piperidine-2,6-dione], in assay [1], the “293T-LentiX WEE1-ePL Degradation 4 hr (Ymin)” value came to 33 and the DC50 stood at 1.03 nM. In assay [2], the EC50 is 0.329 nM and the “MKN45 Cell Prolif. 120 hr (Ymin-Obs)” value is 7.956.

On to `CO[C@H]1CC[C@@H](c2ccc3cc(CN4CC[C@H](Oc5ccc6c(c5)CN(C5CCC(=O)NC5=O)C6=O)C4)ccc3n2)CC1` (stereo partly drawn) [3-(1-oxo-5-{[(3S)-1-({2-[(1s,4s)-4-methoxycyclohexyl]quinolin-6-yl}methyl)pyrrolidin-3-yl]oxy}-2,3-dihydro-1H-isoindol-2-yl)piperidine-2,6-dione], for which, in assay [1], the “293T-LentiX WEE1-ePL Degradation 4 hr (Ymin)” value was 30 and the DC50 was found to be 1.12 nM. Further, in assay [2], the EC50 worked out at 1.14 nM and the “MKN45 Cell Prolif. 120 hr (Ymin-Obs)” value is on record as 9.583.

`O=C1CCC(N2Cc3cc(O[C@H]4CCN(Cc5ccc6nc([C@H]7CCOC7)ccc6c5)C4)ccc3C2=O)C(=O)N1` (stereo partly drawn) [3-(1-oxo-5-{[(3S)-1-({2-[(3R)-oxolan-3-yl]quinolin-6-yl}methyl)pyrrolidin-3-yl]oxy}-2,3-dihydro-1H-isoindol-2-yl)piperidine-2,6-dione]: in assay [1], the “293T-LentiX WEE1-ePL Degradation 4 hr (Ymin)” value is recorded as 29 and the DC50 was found to be 2.71 nM. Moreover, in assay [2], the EC50 is 6.07 nM and the “MKN45 Cell Prolif. 120 hr (Ymin-Obs)” value is 8.454.

For the molecule `O=C1CCC(N2Cc3cc(O[C@H]4CCN(Cc5ccc6nc([C@@H]7CCOC7)ccc6c5)C4)ccc3C2=O)C(=O)N1` (stereo partly drawn) [3-(1-oxo-5-{[(3S)-1-({2-[(3S)-oxolan-3-yl]quinolin-6-yl}methyl)pyrrolidin-3-yl]oxy}-2,3-dihydro-1H-isoindol-2-yl)piperidine-2,6-dione], in assay [1], the “293T-LentiX WEE1-ePL Degradation 4 hr (Ymin)” value is 30 and the DC50 amounted to 2.41 nM. Also, in assay [2], the EC50 turned out to be 2.45 nM and the “MKN45 Cell Prolif. 120 hr (Ymin-Obs)” value stood at 8.77.

As to `CC(C)OCc1ccc2cc(CN3CC[C@H](Oc4ccc5c(c4)CN(C4CCC(=O)NC4=O)C5=O)C3)ccc2n1` (stereo partly drawn) [3-(1-oxo-5-{[(3S)-1-({2-[(propan-2-yloxy)methyl]quinolin-6-yl}methyl)pyrrolidin-3-yl]oxy}-2,3-dihydro-1H-isoindol-2-yl)piperidine-2,6-dione], in assay [1], the “293T-LentiX WEE1-ePL Degradation 4 hr (Ymin)” value was 36 and the DC50 is 6.51 nM. Further, in assay [2], the EC50 came to 3.4 nM and the “MKN45 Cell Prolif. 120 hr (Ymin-Obs)” value was determined as 8.147.

For the molecule `O=C1CCC(N2Cc3cc(O[C@H]4CCN(Cc5ccnc6c5CCCO6)C4)ccc3C2=O)C(=O)N1` (stereo partly drawn) [3-(1-oxo-5-{[(3S)-1-({2H,3H,4H-pyrano[2,3-b]pyridin-5-yl}methyl)pyrrolidin-3-yl]oxy}-2,3-dihydro-1H-isoindol-2-yl)piperidine-2,6-dione], in assay [1], the “293T-LentiX WEE1-ePL Degradation 4 hr (Ymin)” value worked out at 44 and the DC50 worked out at 38.9 nM. Besides, in assay [2], the EC50 stood at 489 nM and the “MKN45 Cell Prolif. 120 hr (Ymin-Obs)” value amounted to 27.04.

As to `O=C1CCC(N2Cc3cc(O[C@H]4CCN(Cc5cnc6c(c5)CCCO6)C4)ccc3C2=O)C(=O)N1` (stereo partly drawn) [3-(1-oxo-5-{[(3S)-1-({2H,3H,4H-pyrano[2,3-b]pyridin-6-yl}methyl)pyrrolidin-3-yl]oxy}-2,3-dihydro-1H-isoindol-2-yl)piperidine-2,6-dione], in assay [1], the “293T-LentiX WEE1-ePL Degradation 4 hr (Ymin)” value was 33.245 and the DC50 amounted to 35.4 nM. Besides, in assay [2], the EC50 was found to be 1120 nM and the “MKN45 Cell Prolif. 120 hr (Ymin-Obs)” value is reported as 23.52.

Turning to `O=C1CCC(N2Cc3cc(O[C@H]4CCN(Cc5cncc6c5CCCO6)C4)ccc3C2=O)C(=O)N1` (stereo partly drawn) [3-(1-oxo-5-{[(3S)-1-({2H,3H,4H-pyrano[2,3-c]pyridin-5-yl}methyl)pyrrolidin-3-yl]oxy}-2,3-dihydro-1H-isoindol-2-yl)piperidine-2,6-dione], in assay [1], the “293T-LentiX WEE1-ePL Degradation 4 hr (Ymin)” value worked out at 29.38 and the DC50 was 24.6 nM. In assay [2], the EC50 worked out at 69.9 nM and the “MKN45 Cell Prolif. 120 hr (Ymin-Obs)” value is 11.03.

With `O=C1CCC(N2Cc3cc(O[C@H]4CCN(Cc5cc6c(cn5)OCCC6)C4)ccc3C2=O)C(=O)N1` (stereo partly drawn) [3-(1-oxo-5-{[(3S)-1-({2H,3H,4H-pyrano[2,3-c]pyridin-6-yl}methyl)pyrrolidin-3-yl]oxy}-2,3-dihydro-1H-isoindol-2-yl)piperidine-2,6-dione], in assay [1], the “293T-LentiX WEE1-ePL Degradation 4 hr (Ymin)” value worked out at 33 and the DC50 stood at 12.3 nM. In addition, in assay [2], the EC50 worked out at 153 nM and the “MKN45 Cell Prolif. 120 hr (Ymin-Obs)” value was determined as 12.988.

With `O=C1CCC(N2Cc3cc(O[C@H]4CCN(Cc5nccc6c5CCCO6)C4)ccc3C2=O)C(=O)N1` (stereo partly drawn) [3-(1-oxo-5-{[(3S)-1-({2H,3H,4H-pyrano[3,2-c]pyridin-5-yl}methyl)pyrrolidin-3-yl]oxy}-2,3-dihydro-1H-isoindol-2-yl)piperidine-2,6-dione], in assay [1], the “293T-LentiX WEE1-ePL Degradation 4 hr (Ymin)” value is reported as 36 and the DC50 stood at 16.1 nM. Besides, in assay [2], the EC50 came to 122 nM and the “MKN45 Cell Prolif. 120 hr (Ymin-Obs)” value is listed as 16.99.

Source of the values: US20240067632A1, “WEE1 Degrading Compounds and Uses Thereof” (Bristol-Myers Squibb Company, priority 2022, published 2024).
